{"source": "paper PMC4066452", "about": "(Archives of biochemistry and biophysics, 2014)", "molecular_target": "MtACS (Mycobacterium tuberculosis acetyl-CoA synthetase) (Mycobacterium tuberculosis, UniProt P9WQD1)", "sequence (P9WQD1 2-651)": "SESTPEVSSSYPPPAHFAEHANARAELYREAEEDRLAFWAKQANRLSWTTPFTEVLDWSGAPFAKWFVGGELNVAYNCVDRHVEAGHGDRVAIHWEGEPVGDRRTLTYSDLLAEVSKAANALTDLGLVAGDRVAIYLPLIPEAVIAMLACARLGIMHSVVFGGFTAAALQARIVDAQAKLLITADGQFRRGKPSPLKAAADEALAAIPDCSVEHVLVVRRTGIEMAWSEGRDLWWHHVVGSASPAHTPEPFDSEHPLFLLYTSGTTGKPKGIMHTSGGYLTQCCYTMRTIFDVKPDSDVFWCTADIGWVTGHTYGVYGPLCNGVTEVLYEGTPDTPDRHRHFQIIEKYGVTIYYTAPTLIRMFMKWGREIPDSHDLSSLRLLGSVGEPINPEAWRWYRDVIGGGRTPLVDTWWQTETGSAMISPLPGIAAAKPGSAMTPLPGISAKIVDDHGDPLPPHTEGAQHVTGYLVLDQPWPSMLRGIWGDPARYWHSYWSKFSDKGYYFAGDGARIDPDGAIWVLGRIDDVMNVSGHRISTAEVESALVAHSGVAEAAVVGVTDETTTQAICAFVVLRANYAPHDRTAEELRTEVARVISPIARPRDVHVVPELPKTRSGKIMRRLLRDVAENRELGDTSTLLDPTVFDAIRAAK", "assay": "biochemical", "data": [{"smiles": "Nc1ncnc2c1ncn2[C@@H]1O[C@H](COP(=O)(O)CP(=O)(O)OP(=O)(O)O)[C@@H](O)[C@H]1O", "note": "[AMPCPP]", "values": [{"measurement": "Ki", "result": "5 ± 0.8", "unit": "mM"}]}]}
